Source: PubChem BioAssay (NCI)
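Interpolation was linear, between the two tested concentrations surrounding the appropriate level; five concentrations were tested over 48 hours in 96-well plates. GI50 marks 50% less growth. TGI denotes the concentration required for complete inhibition of growth.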

Tests used:
Assay in all cases: DTP human tumour cell line panel, 48 h
[1] = tested on: KM12 colon
[2] = tested on: SF-268 CNS
[3] = tested on: MCF7 breast
[4] = tested on: SR leukemia
[5] = tested on: MDA-MB-435
[6] = tested on: K-562 leukemia
[7] = tested on: HT29 colon
[8] = tested on: A549 NSCLC
[9] = tested on: NCI-H460 lung
[10] = tested on: UO-31 renal

SMILES	TGI [1]	TGI [2]	TGI [3]	TGI [4]	TGI [5]	TGI [6]	TGI [7]	TGI [8]	TGI [9]	GI50 [1]	GI50 [2]	GI50 [3]	GI50 [4]	GI50 [7]	GI50 [8]	GI50 [9]	TGI [10]	GI50 [5]	GI50 [10]
COc1ccc2c(O)c3[n+](cc2c1OC)CCc1cc2c(cc1-3)OCO2	> 100 µM	> 100 µM	> 100 µM	> 100 µM	69.3 µM	> 100 µM	> 100 µM	> 100 µM	> 100 µM	–	–	–	–	–	–	–	–	–	–
ClCCN(CCCl)Cc1ccc(Nc2ccnc3cc(Cl)ccc23)cc1	5.57 µM	5.68 µM	9.34 µM	2.78 µM	–	–	4.73 µM	5.08 µM	10.7 µM	2.07 µM	1.18 µM	0.588 µM	0.269 µM	1.28 µM	1.11 µM	0.402 µM	–	–	–
COc1ccc(C(=O)C2CC3(CCC2(O)c2ccc(OC)cc2)CC(=O)Nc2ccccc2C3=O)cc1 (centres undefined)	–	> 100 µM	> 100 µM	> 100 µM	> 100 µM	> 100 µM	> 100 µM	> 100 µM	> 100 µM	–	–	–	–	–	–	–	> 100 µM	–	–
COC[C@H]1C(=O)NCC(=O)N2NCCC[C@H]2C(=O)N(O)[C@H](C)C(=O)O[C@@H](C(C)C)[C@H](NC(=O)[C@](C)(O)[C@]2(O)CC[C@@H](CC(C)C)[C@H](C)O2)C(=O)N2NCCC[C@@H]2C(=O)N1O	0.0241 µM	–	–	0.0555 µM	0.0128 µM	–	0.0293 µM	0.028 µM	0.0125 µM	0.01 µM	–	–	0.0118 µM	0.0144 µM	< 0.0128 µM	< 0.01 µM	0.0458 µM	< 0.01 µM	0.0192 µM
CO/C(=N\N=C(/C)C(F)(F)F)c1ccncc1	> 100 µM	–	> 100 µM	> 100 µM	> 100 µM	> 100 µM	> 100 µM	–	> 100 µM	–	–	–	–	–	–	–	> 100 µM	–	–
CCOc1ncn(-c2ccc(NC(=S)Nc3cccc(O)c3)cc2)n1	> 100 µM	> 100 µM	> 100 µM	> 100 µM	> 100 µM	> 100 µM	> 100 µM	> 100 µM	> 100 µM	–	–	–	–	–	–	–	> 100 µM	–	–
